The values that follow come from US20130059793A1, “EGF RECEPTOR MIMICKING PEPTIDES” (BOARD OF REGENTS, THE UNIVERSITY OF TEXAS SYSTEM, priority 2010, published 2013).

Square brackets hold non-standard residues; d marks the D form. Ends that are not written are not given here.

The subject of test [1] is EGFR ligands EGF, TGFα, and cetuximab. The test is described as follows: Combinatorial CX7C phage library screening on EGFR ligands; consensus motifs (Table 1). Particulars: EGFR ligand(s) on which the overlapping consensus motif was selected. Format: binding. The protocol:
Phage peptide screening and binding assays were performed as described (Cardó-Vila et al., 2003). A random phage peptide library displaying the insert CX7C (where X is any amino acid and C is a cysteine residue) was used for the screening; phage input was 3×10^9 transducing units (TU). Antibodies, EGF, or TGF-α (R&D Systems) were coated onto microtiter wells as described (Smith and Scott, 1993). […] Wells were washed twice with PBS, blocked with PBS containing 3% BSA for 1 hr at room temperature (RT), and incubated with the phage library in 50 μl PBS containing 1.5% BSA. After 2 hr at RT, wells were washed ten times with PBS, and phage were recovered by bacterial infection as described (Smith and Scott, 1993; Giordano et al., 2001; Cardó-Vila et al., 2003). […] Purification of phage particles and sequencing of phage single-stranded (ss) DNA were performed as described (Arap et al., 1998; Pasqualini et al., 2001). Phage ssDNA from 96 individual clones from each of the second, third, and fourth rounds of selection were prepared, and inserts were sequenced.
Peptide-matching software (Mandava et al., 2004) was used to identify motifs resembling targeted ligands. To identify motifs resembling targeted ligands among the selected sequences, the inventors used a peptide-matching software program based on RELIC, an established bioinformatics server for combinatorial peptide analysis and identification of protein-ligand interaction sites (Mandava et al., 2004), designed and implemented through Perl 5.8.1. The program calculates similarity based on a pre-defined amino acid window size (defined empirically and experimentally) between an affinity-selected peptide sequence and the target protein sequence from N-terminus to C-terminus in one-residue shifts to fit the best alignment. The peptide-protein similarity scores for each amino acid residue were calculated based on an amino acid substitution matrix modified to adjust for rare residue representation. In this case, similarity scores were calculated based on a 5-residue window, with every pentamer motif in each selected peptide compared to each pentamer segment of the protein. Empirical similarity score thresholds were set with at least three identical residues plus one similar residue between the peptide and the protein segment.
A combinatorial approach was used to identify consensus protein-interacting sites within the EGFR. […] Serial enrichment in all selections was observed (FIGS. 1A-C). Bovine serum albumin (BSA), VEGF, and irrelevant IgG served as negative controls.
A comprehensive protein similarity analysis of selected peptides (n=384) was performed to identify sequences resembling the extracellular domain of the EGFR. Overlapping consensus motifs selected in all three EGFR ligands were identified, mapped, and consolidated within the five dominant candidate regions (Cys227-Cys240, Cys283-Asp290, Cys486-Cys491, Cys547-Cys567, Cys604-Lys618; not accounting for the signal peptide, as indicated) within the primary structure of the receptor (FIG. 2A, yellow highlights).

In another test the test system is GEO tumor cells. The test is described as follows: Inhibition by peptide of the cetuximab-dependent inhibition of proliferation, GEO. Format: cell-based, human. Particulars: with cetuximab. The protocol: (§1) Tumor cell lines HN5, UMSCC 10A, GEO and EF43.fgf-4 were culture in standard conditions. Viability was assessed by MTT assays (Sigma) as described (Cardó-Vila et al., 2003). […] Samples were read at 570 nm.

Test [2] can be described thus: Nuclear magnetic resonance (NMR)-spectroscopy interactions. Format: binding.
Test [3] has as its system HN5 tumor cells. The test is described as follows: Inhibition by peptide of the cetuximab-dependent inhibition of proliferation, HN5. Particulars: HN5, with cetuximab; 60 μM or 180 μM CVRAC, FIG. 4A. Format: cell-based, human. As for the experimental part:
(§2) A representative experiment is depicted. […] Bars represent mean±SEM. […] (FIG. 4C) Effect of the synthetic peptides on HN5 tumor cells. […] Viability in the absence of peptide was set to 100%. […] Bars represent mean±SEM. […] Receptors were immunoprecipitated with antibodies against phosphorylated (p) pEGFR and were immunoblotted with anti-phosphotyrosine IgG.
as §1

Test [4] has as its system binding of cetuximab to the EGFR. The test is described as follows: ELISA inhibition of binding of cetuximab to the EGFR by synthetic peptides (FIG. 3B, FIGS. 7A-C). As to conditions: for inhibition of binding of cetuximab to the EGFR: ELISA, FIG. 3B; for initial functional screen of consensus motif panel (n=15) with cetuximab: FIGS. 7A-C. The source says: (§3) BSA served as an additional negative control, and the EGFR, as a positive control. […] Insertless phage served as a negative control. […] Bars represent mean±SEM.
Similar methodologies have been applied to therapeutic (Binder et al., 2006; Binder et al., 2007; Riemer et al., 2005) or diagnostic (Jaalouk et al., 2007) antibodies in a strategy that could reveal mechanisms of action (Binder et al., 2007), identify biological reagents for immunization (Riemer et al., 2005), or discover unrecognized antigens (Jaalouk et al., 2007).
(ELISA stands for enzyme-linked immunosorbent assay.)

The test system of test [5] is EF43.fgf-4-derived tumors. The test is described as follows: Treatment of tumor-bearing mice with peptides and peptidomimetics, tumor volume. Format: in vivo. As to conditions: Balb/c mice, EF43.fgf-4 tumors, 750 μg/mouse/dose. The source says:
FIGS. 5A-B: CVRAC-targeted phage homes to tumor. (FIG. 5A) Targeting tumors versus control organs. […] An anti-phage antibody was used for staining H&E staining, with the corresponding fluorescence-based immunostaining, are shown in tumors (FIG. 5A). Tumor-bearing mice received CVRAC phage, CVAAC phage, or insertless control phage as indicated. Cohorts of tumor-bearing mice (n=5 mice/group) were used. A representative experiment is shown. Scale bar, 100 μm. (FIG. 5B) Treatment of tumor-bearing mice with peptides and peptidomimetics. Balb/c mice bearing EF43.fgf-4-derived tumors were divided into size-matched cohorts (n=7 mice/group); individual tumor volumes are represented before (black circles) and after (white circles). Peptides and peptidomimetics were administered at 750 μg/mouse/dose for 5 days. Shown are mean tumor volumes±SEM.
Selective phage homing to tumors was evaluated as described (Hajitou et al., 2006; Arap et al., 1998). […] Each cohort of mice (n=3 per experiment) with size-matched tumors received a set of test and control phage clones. After 6 h, tumor-bearing mice were perfused through the heart with 20 ml of PBS containing 4% paraformaldehyde (PFA). […] For experimental therapy, Balb/c mice bearing EF43.fgf-4-derived tumors were established, and tumor volumes were determined as described (Arap et al., 1998; Hajitou et al., 2006; Ciardiello et al., 1999). […]

Test [6] relates to HN5 tumor cells. Briefly: Cell viability/proliferation, MTT assay, HN5. Format: cell-based, human. Also noted: cell proliferation / viability: dose or concentration left out as unconfirmed. As to conditions: HN5, MTT, 120 h, increasing concentrations, FIG. 4C. As for the experimental part: as §2, §1
Tumor cell lines HN5, UMSCC 10A, GEO and EF43.fgf-4 were maintained in high-glucose DMEM, supplemented with 10% heat-inactivated fetal bovine serum, 20 mM HEPES (pH 7.4), 100 IU/ml penicillin, 100 μg/ml streptomycin, and 4 mM glutamine at 5% CO2 at 37° C. EF43.fgf-4 were grown in G418 as described (Hajitou et al., 2006).

In another test the test system is cetuximab. Briefly: Binding of synthetic peptides to cetuximab (ELISA-based, FIG. 3A, FIG. 4B). Particulars: FIG. 4B (peptides plated at 10 μg/ml).
Excerpt: as §3, §2
(§4) The EGFR served as an immobilized positive control, and BSA or control peptides (CVAAC) served as immobilized negative controls.

Test [7] concerns polyclonal anti-CVRAC antibodies. Briefly: ELISA recognition of peptides by polyclonal anti-CVRAC antibodies (FIG. 4B). Format: binding, rabbit.
Excerpt: as §2
Rabbits were immunized with KLH-conjugated CVRAC and a purified antibody was obtained. […] The capacity of rabbit IgG against CVRAC to recognize CVRAC, D(CARVC), and EGFR was measured by ELISA.
as §4

The test system of a further test is EGFR. The test is described as follows: EGF-induced EGFR autophosphorylation (immunoprecipitation, anti-phosphotyrosine blot). Format: cell-based, human. As to conditions: HN5 tumor cells, EGF 15 min, FIG. 4E.
Excerpt: as §2

Turning to “AQQCSGRCRGKSPSD [synthetic EGFR-mimicking peptide]”, in test [1], the Selected on entry is given as “EGF & TGFα”. As to “CKDTC [synthetic EGFR-mimicking peptide]”, the Selected on result in [1] is reported as “All EGFR ligands”.

As to “CLPQAMNIT [synthetic EGFR-mimicking peptide]”, the Selected on entry in test [1] is reported as “Cetuximab”.

Take “CPAGVM [synthetic EGFR-mimicking peptide]”: the Selected on result in [1] is on record as “Cetuximab”. Same read-out and setting: for CQKCDPSC the value was “Cetuximab & TGFα”. Same read-out and setting: for “CRKFRDEATC [synthetic EGFR-mimicking peptide]” the value was “All EGFR ligands”; for “CSPEGC (also: cyclic, ring type not given here) [synthetic EGFR-mimicking peptide]”, “All EGFR ligands”. The same measure, in the same setting: next, “CTGPGLEGCPTNGPK [synthetic EGFR-mimicking peptide]”: “All EGFR ligands”; “CTGRGPDNCIQ [synthetic EGFR-mimicking peptide]”: “All EGFR ligands”. In the case of “CVRAC [synthetic cyclic peptide, EGFR residues 283-287]”, the “inhibition of the antibody-dependent inhibition of proliferation” value in the test on GEO tumor cells is recorded as “concentration-dependent inhibition”. Also, the “interactions by NMR-spectroscopy” value in [2] is listed as “Low-affinity interactions (micromolar range)”. The “inhibition of the antibody-dependent inhibition of proliferation” value with HN5 tumor cells [3] is on record as “concentration-dependent inhibition”. Further, in test [4], the “inhibition of binding of cetuximab to the EGFR” value was “Concentration-dependent inhibition” and the “initial functional screen of consensus motif panel (n=15) with cetuximab” value is “not significantly different”. Also, the “therapeutic efficacy, tumor growth” value in [5] was “showed therapeutic efficacy in vivo”. Further, in the test on HN5 tumor cells [6], the “cell proliferation / viability” value was “proliferated much less”. In the test with cetuximab, the “binding of synthetic peptide to cetuximab” value is “specifically bind to cetuximab”. For the same substance, the “recognition by polyclonal anti-CVRAC antibodies” value in test [7] is “recognized”.

As to “CVRACGAD (not fully specified (bridges); also: cyclic, ring type and places not given here) [synthetic cyclic peptide, EGFR residues 283-290]”, in test [4], the “inhibition of binding of cetuximab to the EGFR” value is “Concentration-dependent inhibition” and the “initial functional screen of consensus motif panel (n=15) with cetuximab” value is on record as “best concentration-dependent ligand peptide”. Further, in test [1], the Selected on result is “All EGFR ligands”. Besides, the “binding of synthetic peptide to cetuximab” value in the test on cetuximab is given as “specifically bind to cetuximab”. For “D(CAAVC) ([dC][dA][dA][dV][dC]; cysteine pairing not given here; also: peptidomimetic) [negative control peptidomimetic with a mutation corresponding to EGFR Arg285Ala, reference compound]”, the “EGF-induced tyrosine phosphorylation of the EGFR” value in the test with EGFR is reported as “not”. “IIRGRTK [synthetic EGFR-mimicking peptide]”: the Selected on result in test [1] is “EGF & TGFα”. Same read-out and setting: next, “IQCAHYIDGPHC [synthetic EGFR-mimicking peptide]”: “All EGFR ligands”; “PNGSCW [synthetic EGFR-mimicking peptide]”: “Cetuximab”. On the same count and under the same terms, next, “QRNYDLSFL [synthetic EGFR-mimicking peptide]”: “EGF & TGFα”; “THTPPLDPQEL [synthetic EGFR-mimicking peptide]”: “EGF & TGFα”.
